Data as given in patent US20050112573A1, “Method of detecting toxic substance” (priority 2001, published 2005).

Test system: yeast genes (level of expressed mRNA)
Assay: DNA chip analysis of expressed mRNA of yeast genes after 2 h culture with a toxic chemical substance
Assay type: cell-based, Saccharomyces cerevisiae S288C
Details: for The level of expressed mRNA in the presence of chemical substance/ (ratio to absence): transport facilitation protein gene; for The level of expressed mRNA in the presence of chemical substance/: ratio to no chemical; for The level of expressed mRNA in the presence of chemical substance/ (ratio to absence of chemical substance): stress protein genes, DNA chip
Protocol: Yeast (Saccharomyces cerevtisiae S288C (α SUC2mal mel gap2 CUP1)) were cultured at 25° C. on YPD medium (yeast extract 1%, polypepton 2%, glucose 2%). One of toxic chemical substances was added to the cell at logarithmic growth phase, and the cell was further cultured for two hours. Cell was cultured without any chemical substance in the same condition, and was used as control. Concentrations of the chemical substances were defined to inhibit the growth of the yeast but not lead to death.
After the completion of cultivation, the culture was centrifuged to collect the cells. To the cells, sodium acetate buffer (50 mM sodium acetate, 10 mM EDTA, 1% SDS) was added, and the mixture was shaken at 65° C. for five minutes, followed by returning to room temperature, and obtaining the supernatant, which procedure was repeated two times. To the supernatant, ½ amount of a solution of phenol/chloroform was added, and the mixture was centrifuged to give a supernatant, which was added with an equal amount of chloroform, and the mixture was centrifuged to give a supernatant. To the supernatant, an equal amount of isopropanol containing 0.3 M sodium acetate was added, and the mixture was allowed to stand at room temperature for 30 minutes, after which the mixture was centrifuged to give a sediment of the whole RNAs. Seventy % ethanol was added to the sediment, and the mixture was again centrifuged to give a sediment, which was then dried and dissolved in water. mRNA was isolated from the whole RNAs as followings. In view of the fact that a poly A chain is attached to the 3′ terminus of mRNA, a polynucleotide having a poly T structure which was immobilized on the surface of latex beads was used to trap the mRNA, and then the mRNA was washed and eluted with spine column (Oligotex-dT30<Super>mRNA Purification Kit, Takara). Reverse transcription of the mRNA was conducted with a reverse transcriptase (Super Script II Reverse Transcriptase; catalogue No. 18064-014, GibcoBRL) using fluorescence-labeled nucleotides to give cDNAs that were introduced with Cy3-dUTP or Cy5-dUTP during the reverse transcription.
The labeled cDNAs were dissolved in TE buffer (10 mM Tris-HCl/1 mM EDTA, pH8.0), and the solution was dropped on the DNA chip containing the whole genes of yeast (DNA Chip Research Inc. Japan) so that the cDNAs were hybridized on the DNA chip at 65° C. for over 12 hours. The fluoresces intensity of the DNA chip was read with a scanner, and the ratio relative to the fluorescence intensity resulting from the absence of chemical substance was estimated as the following, which is shown in Tables 1 to 9: [formula]
In the Tables, “Intensity” indicated in the rightmost column is a value of the level of expressed mRNA of each gene in control cells as divided by the average level of the expressions of the whole genes.

## sodium dodecylbenzosulfonate [(17)]
Yeast gene YIL123W
  The level of expressed mRNA in the presence of chemical substance/The level of expressed mRNA in the absence of chemical substance: 1.3
Yeast gene YIL140W
  The level of expressed mRNA in the presence of chemical substance/The level of expressed mRNA in the absence of chemical substance: 0.7
Yeast gene YIL160C
  The level of expressed mRNA in the presence of chemical substance/in the absence of chemical substance: 2.4
Yeast gene YIL166C
  The level of expressed mRNA in the presence of chemical substance/ (ratio to absence): 1.2
Yeast gene YIL170W
  The level of expressed mRNA in the presence of chemical substance/ (ratio to absence): 1.6
Yeast gene YIR017C
  The level of expressed mRNA in the presence of chemical substance/in the absence of chemical substance: 1.5
Yeast gene YIR030C
  The level of expressed mRNA in the presence of chemical substance/in the absence of chemical substance: 0.9
Yeast gene YJL036W
  The level of expressed mRNA in the presence of chemical substance/: 1.4
Yeast gene YJL052W
  The level of expressed mRNA in the presence of chemical substance/in the absence of chemical substance: 1.2
Yeast gene YJL070C, ratio of DNA chip fluorescence intensity to that without chemical substance
  The level of expressed mRNA in the presence of chemical substance/ (in its absence), gene YJL070C: 1.1
Yeast gene YJL073W
  The level of expressed mRNA in the presence of chemical substance/The level of expressed mRNA in the absence of chemical substance: 1.1
Yeast gene YJL089W
  The level of expressed mRNA in the presence of chemical substance/The level of expressed mRNA in the absence of chemical substance: 1.2
Yeast gene YJL094C
  The level of expressed mRNA in the presence of chemical substance/ (ratio to absence): 2.1
Yeast gene YJL096W, mitochondria-located protein genes, 2 h culture with chemical
  The level of expressed mRNA in the presence of chemical substance/ (ratio to absence), gene YJL096W: 1.1
Yeast gene YJL116C
  The level of expressed mRNA in the presence of chemical substance/The level of expressed mRNA in the absence of chemical substance: 1.2
Yeast gene YJL153C
  The level of expressed mRNA in the presence of chemical substance/in the absence of chemical substance: 6.5
Yeast gene YJL158C
  The level of expressed mRNA in the presence of chemical substance/ (ratio to absence of chemical substance): 1.4
Yeast gene YJL167W, ratio of DNA chip fluorescence intensity to that without chemical substance
  The level of expressed mRNA in the presence of chemical substance/ (in its absence), gene YJL167W: 1.4
Yeast gene YJL180C, mitochondria-located protein genes, 2 h culture with chemical
  The level of expressed mRNA in the presence of chemical substance/ (ratio to absence), gene YJL180C: 0.9
Yeast gene YJL185C
  The level of expressed mRNA in the presence of chemical substance/: 1.0
Yeast gene YJL212C
  The level of expressed mRNA in the presence of chemical substance/ (ratio to absence): 0.6
Yeast gene YJL213W
  The level of expressed mRNA in the presence of chemical substance/: 2.1
Yeast gene YJL216C, ratio of DNA chip fluorescence intensity to that without chemical substance
  The level of expressed mRNA in the presence of chemical substance/ (in its absence), gene YJL216C: 1.2
Yeast gene YJL219W
  The level of expressed mRNA in the presence of chemical substance/ (ratio to absence): 1.6
Yeast gene YJR004C
  The level of expressed mRNA in the presence of chemical substance/The level of expressed mRNA in the absence of chemical substance: 0.4
Yeast gene YJR009C
  The level of expressed mRNA in the presence of chemical substance/in the absence of chemical substance: 1.1
Yeast gene YJR010W
  The level of expressed mRNA in the presence of chemical substance/in the absence of chemical substance: 1.2
Yeast gene YJR073C
  The level of expressed mRNA in the presence of chemical substance/in the absence of chemical substance: 2.9
Yeast gene YJR085C
  The level of expressed mRNA in the presence of chemical substance/: 1.4
Yeast gene YJR086W
  The level of expressed mRNA in the presence of chemical substance/The level of expressed mRNA in the absence of chemical substance: 1.4
Yeast gene YJR090C
  The level of expressed mRNA in the presence of chemical substance/ (ratio to absence of chemical substance): 1.1
Yeast gene YJR095W
  The level of expressed mRNA in the presence of chemical substance/ (ratio to absence): 1.3
Yeast gene YJR106W
  The level of expressed mRNA in the presence of chemical substance/ (ratio to absence): 1.2
Yeast gene YJR130C
  The level of expressed mRNA in the presence of chemical substance/in the absence of chemical substance: 1.1
Yeast gene YJR149W
  The level of expressed mRNA in the presence of chemical substance/in the absence of chemical substance: 1.1
Yeast gene YJR155W
  The level of expressed mRNA in the presence of chemical substance/in the absence of chemical substance: 1.3
Yeast gene YKL001C
  The level of expressed mRNA in the presence of chemical substance/in the absence of chemical substance: 2.7
Yeast gene YKL008C
  The level of expressed mRNA in the presence of chemical substance/The level of expressed mRNA in the absence of chemical substance: 1.4
Yeast gene YKL013C
  The level of expressed mRNA in the presence of chemical substance/The level of expressed mRNA in the absence of chemical substance: 1.6
Yeast gene YKL039W
  The level of expressed mRNA in the presence of chemical substance/The level of expressed mRNA in the absence of chemical substance: 1.2
Yeast gene YKL041W
  The level of expressed mRNA in the presence of chemical substance/The level of expressed mRNA in the absence of chemical substance: 1.1
Yeast gene YKL096W
  The level of expressed mRNA in the presence of chemical substance/The level of expressed mRNA in the absence of chemical substance: 0.5
Yeast gene YKL133C
  The level of expressed mRNA in the presence of chemical substance/: 1.2
Yeast gene YKL146W
  The level of expressed mRNA in the presence of chemical substance/ (ratio to absence): 1.0
Yeast gene YKL162C
  The level of expressed mRNA in the presence of chemical substance/: 0.8
Yeast gene YKL164C
  The level of expressed mRNA in the presence of chemical substance/ (ratio to absence of chemical substance): 0.8
Yeast gene YKL165C
  The level of expressed mRNA in the presence of chemical substance/The level of expressed mRNA in the absence of chemical substance: 0.9
Yeast gene YKL187C
  The level of expressed mRNA in the presence of chemical substance/: 0.7
